Laboratory results published in patent US20130324522A1, “INSECT ODORANT RECEPTOR ANTAGONISTS” (THE ROCKEFELLER UNIVERSITY, priority 2010, published 2013).
Like-named read-outs stand apart in the source and are kept apart here.

How the values were obtained:
Or47a/Or83b = molecular target: T1, Or47a/Or83b (Drosophila melanogaster, UniProt P81921+Q9VNB5); assay: Ca2+-imaging of stable Flip-In T-Rex cell line Or47a/Or83b; format: cell-based; details: for inhibition at 4 µM: read-out: Percent Inhibition OR47a OR83b
T1 construct: Full-length cDNAs for mosquito (Anopheles gambiae) odorant receptor (OR1, OR2, OR7, OR8, OR28), and fly (Drosophila melanogaster) odorant receptor (Or47a, Or83b); expressed in transfected cells
T1 sequence (P81921 1-385): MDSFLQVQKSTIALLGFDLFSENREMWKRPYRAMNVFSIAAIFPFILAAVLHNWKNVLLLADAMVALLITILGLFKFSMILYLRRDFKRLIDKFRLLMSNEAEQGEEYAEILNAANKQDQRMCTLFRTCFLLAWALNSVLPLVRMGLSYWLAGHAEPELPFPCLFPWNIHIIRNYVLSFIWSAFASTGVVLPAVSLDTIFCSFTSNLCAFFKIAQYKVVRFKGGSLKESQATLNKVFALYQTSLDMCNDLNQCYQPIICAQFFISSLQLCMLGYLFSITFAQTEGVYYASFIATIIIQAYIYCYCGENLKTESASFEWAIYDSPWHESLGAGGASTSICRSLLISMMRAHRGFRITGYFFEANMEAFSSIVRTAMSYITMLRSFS
T1 sequence (Q9VNB5 1-486): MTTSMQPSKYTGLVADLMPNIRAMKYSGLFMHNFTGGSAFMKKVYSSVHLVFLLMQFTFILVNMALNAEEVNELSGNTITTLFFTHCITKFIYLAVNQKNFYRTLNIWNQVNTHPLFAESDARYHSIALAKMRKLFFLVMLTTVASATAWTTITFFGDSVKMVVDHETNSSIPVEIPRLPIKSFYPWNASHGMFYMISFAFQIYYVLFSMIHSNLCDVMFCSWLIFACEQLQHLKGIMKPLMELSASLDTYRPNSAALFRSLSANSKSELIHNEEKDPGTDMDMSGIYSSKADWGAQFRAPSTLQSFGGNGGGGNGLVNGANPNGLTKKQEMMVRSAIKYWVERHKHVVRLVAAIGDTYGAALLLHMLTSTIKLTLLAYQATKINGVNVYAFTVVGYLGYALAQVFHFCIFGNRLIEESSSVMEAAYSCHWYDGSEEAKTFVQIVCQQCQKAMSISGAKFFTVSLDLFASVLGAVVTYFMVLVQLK
Method: (§1) Full-length cDNAs for mosquito (Anopheles gambiae) odorant receptor (OR1, OR2, OR7, OR8, OR28), and fly (Drosophila melanogaster) odorant receptor (Or47a, Or83b), mouse TRP channel (TRPM8), and mouse serotonin receptor (5HT3) were obtained and subcloned into mammalian expression vectors. The following mammalian expression vectors were used:
(§2) Stable cell lines Or47a/Or83b and 5HT3 were generated from Flip-In T-Rex cells. Flip-In T-Rex-based cell lines were cultured in DMEM supplemented with these additional antibiotics: 6 μg/mL blasticidin and 100 μg/mL hygromycin.
(§3) Cells were trypsinized and split into 35 mm dishes 1 day before transfection. Confluent cells (60-70%) in 35 mm dishes were co-transfected with 1 μg of Or47a/Or83b plasmid in pcDNA5/FRT/TO/IRES plus the pOG44 plasmid or 1 μg of 5HT3 plasmid in pcDNA5/FRT/TO plus the pOG44 plasmid using lipofectamine 2000. Co-transfection of pOG44 and pcDNA5/FRT/TO/IRES or pcDNA5/FRT/TO allows expression of Flp recombinase and integration of the pcDNA5 plasmid into the genome via the FRT site. After one day of incubation, the transfected cells were transferred into 10 cm dishes with DMEM containing antibiotics: 20 μg/mL of hygromycin and 6 μg/mL of blasticidin. The concentration of Hygromycin was increased to 100 μg/mL when the population of cells became 30-40% confluent. The cells were cultured by changing medium every two days until cell clumps appeared. The clumps were picked and transferred into 96 well plates with DMEM containing 100 μg/mL of Hygromycin and 6 μg/mL of blasticidin. The cells were grown and transferred to 24 well plates, and ligand-evoked calcium increases were tested using the Hamamatsu FDSS6000 real time fluorescence plate reader.
(§4) Stable cell lines were cultured in 10 cm dishes, and confluent cells (70-80%) were trypsinized. 10,000 cells/20 μL were transferred into each well of 384-well plates coated with poly-D-lysine, and cultured for 2 days. For Flip-In T-Rex cells (cell lines expressing Or47a/Or83b and 5HT3), 5 μL of tetracycline (5 μg/mL) were added 1 day before the assay. 20 μL of Ca-4 dye was loaded into each well for 1.5 hr at room temperature in the dark, and the dye-loaded plates were subjected to Ca^2+-imaging using a Hamamatsu FDSS6000 real time fluorescence plate reader. Odorant solutions (9× final concentration) were prepared by dissolving 1M stock solutions into Hank's Buffered Salt Solution (HBSS), and 30 μL of odor solution was transferred to each well in 384-well plates.
(§5) Compounds ([…] in DMSO) were stored in 384-well plates, and last two columns (32 wells total) contained only DMSO. 200 nL of small compounds were transferred into the odorant plates before the assay using the Perkin-Elmer Janus workstation. The odorant plates were spun down to remove air bubbles, and placed on the FDSS6000 plate loader, and 5 μL of odorant solution was applied to the cell plate on the FDSS6000. Ca^2+ increase was monitored with fluorescence at 525 nm by excitation at 485 nm.

[1] = molecular target: T2, serotonin receptor (5HT3) (Mus musculus, UniProt P23979); assay: Ca2+-imaging of stable Flip-In T-Rex cell line 5HT3; format: cell-based; details: for inhibition at 4 µM: read-out: Percent Inhibition 5HT3
T2 construct: Full-length cDNAs for mosquito (Anopheles gambiae) odorant receptor; expressed in transfected cells
T2 sequence (P23979 24-489): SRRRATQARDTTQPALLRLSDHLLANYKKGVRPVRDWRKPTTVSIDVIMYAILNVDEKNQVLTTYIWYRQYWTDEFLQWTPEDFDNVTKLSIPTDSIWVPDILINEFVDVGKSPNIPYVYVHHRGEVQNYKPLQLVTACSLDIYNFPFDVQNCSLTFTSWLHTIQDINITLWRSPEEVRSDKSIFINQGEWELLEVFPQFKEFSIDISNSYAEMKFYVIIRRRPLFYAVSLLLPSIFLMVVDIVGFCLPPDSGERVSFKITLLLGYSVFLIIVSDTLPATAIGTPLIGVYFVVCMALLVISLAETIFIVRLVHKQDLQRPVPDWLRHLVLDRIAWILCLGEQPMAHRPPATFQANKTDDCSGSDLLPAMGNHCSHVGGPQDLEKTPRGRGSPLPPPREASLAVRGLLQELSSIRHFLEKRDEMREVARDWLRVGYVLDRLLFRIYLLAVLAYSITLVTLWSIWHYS
Method: as §1, §2, §3, §4, §5

[2] = ligand pentyl acetate 30 μM, read-out: IC50 OR47a OR83b
[3] = ligand serotonin 10 μM, read-out: IC50 5HT3

| Structure (SMILES) | inhibition at 4 µM (Or47a/Or83b; compound applied at 4 μM) | inhibition at 4 µM ([1]; compound applied at 4 μM) | IC50 (Or47a/Or83b; Table B, read-out: IC50 OR47a) | other results |
| --- | --- | --- | --- | --- |
| CCOC(=O)CCC(=O)N(CCc1ccccc1)CC(=O)Nc1cc(C(C)(C)C)nn1-c1ccccc1C [RU-0072462] | 26 to 50% | < 25% |  |  |
| COCCN(Cc1nccn1Cc1c(F)cccc1Cl)C(=O)CCc1ccccc1 [RU-0058550] | 26 to 50% | < 25% |  |  |
| O=C(c1ccco1)N(Cc1ccco1)Cc1nccn1Cc1ccccc1F [RU-0047694] | 26 to 50% | 26 to 50% |  |  |
| CCNc1nc(Cl)nc(NC(C)C)n1 [RU-T5] |  |  |  | IC50 (Or47a/Or83b; [2]): > 20 µM; IC50 [1, 3]: > 20 µM |
| COc1ccccc1CC(=O)N1CCOC(COc2ccc(C)cc2)C1 (centres unmarked) [RU-0050390] | 26 to 50% | < 25% |  |  |
| Cc1cc(C)c(Cn2ccnc2CN(C(=O)c2ccccc2F)C(C)C)c(C)c1 [RU-0048001] | 51 to 74% | < 25% | > 1 µM |  |
| O=C(Cc1cccc(F)c1)N1CCOC(COCc2c(Cl)cccc2Cl)C1 (centres unmarked) [RU-0050398] | 26 to 50% | < 25% |  |  |
| CCNc1nc(NC(C)C)nc(SC)n1 [RU-T3] |  |  |  | IC50 (Or47a/Or83b; [2]): 2 to 20 µM; IC50 [1, 3]: 20 to 50 µM |
| O=C(c1ccco1)N(Cc1nccn1Cc1c(F)cccc1Cl)C1CC1 [RU-0048046] | 26 to 50% | < 25% |  |  |
| CC(C)CN(Cc1nccn1Cc1ccc(Cl)cc1Cl)C(=O)c1ccccc1F [RU-0055322] | 26 to 50% | < 25% |  |  |
| Cc1cc(N(C)C2CCCCC2)nc(SCc2cccc(C(=O)N3CCCC3)c2)n1 [RU-0034108] | 26 to 50% | < 25% | > 1 µM |  |
| COc1ccc(OCC(=O)N2CCOC(Cc3ccccc3)C2)cc1 (centres unmarked) [RU-0050384] | 26 to 50% | < 25% |  |  |
| CCCCCCCC(=O)N1CCCC(C(=O)NC2CCCC[C@H]2NC(=O)c2ccccc2C)C1 (some centres unmarked) [RU-0045756] | 26 to 50% | < 25% |  |  |
| CCNc1nc(NC(C)C)nc(N(C#N)Cc2ccccc2)n1 [RU-0015806] | 51 to 74% | 51 to 74% | < 0.1 µM | IC50 ([1]; Table B, read-out: IC50 5HT3): > 1 µM |
| C=CCN(Cc1nccn1Cc1ccccc1F)C(=O)C1CCCC1 [RU-0058964] | 51 to 74% | 51 to 74% | > 1 µM | IC50 ([1]; Table B, read-out: IC50 5HT3): > 1 µM |
| CCN(CC)C(=O)Oc1ccc2c(ccn2Cc2cccc(C)c2)c1NC(=O)CCCCC(=O)OC [RU-0075445] |  |  |  | inhibition at 4 µM (Or47a/Or83b): < 25%; inhibition at 4 µM [1]: < 25% |
| CC(C)Nc1nc(Cl)nc(NCc2ccccc2)n1 [RU-T9] |  |  |  | IC50 (Or47a/Or83b): > 20 µM; IC50 [1]: > 50 µM |
| CC(C)CN(Cc1nccn1Cc1c(F)cccc1Cl)C(=O)c1ccc(F)cc1 [RU-0048054] | 26 to 50% | < 25% |  |  |

| Structure (SMILES) | inhibition at 4 µM (Or47a/Or83b; compound applied at 4 μM) | inhibition at 4 µM ([1]; compound applied at 4 μM) | IC50 (Or47a/Or83b; Table B, read-out: IC50 OR47a) | other results |
| --- | --- | --- | --- | --- |
| O=C(c1cccnc1Cl)N1CCOC(COCc2c(Cl)cccc2Cl)C1 (centres unmarked) [RU-0050372] | 26 to 50% | < 25% |  |  |
| CC(C)N(Cc1nccn1Cc1c(F)cccc1Cl)C(=O)c1ccc(Cl)cc1 [RU-0055364] | 26 to 50% | < 25% |  |  |
| Fc1ccccc1/C=N/Nc1nc(N2CCCCC2)nc(N2CCOCC2)n1 [RU-0018338] | 51 to 74% | 26 to 50% | < 0.1 µM |  |
| COCCCN(Cc1c(-c2ccccc2)noc1N(C)C(C)C)C(=O)c1ccccc1OC [RU-0037003] | < 25% | 26 to 50% |  |  |
| COc1cccc(-c2nnc(SCCCC(=O)N3CCN(C(=O)CC(C)(C)C)C(C)C3)n2-c2ccc(C)cc2)c1 (centres unmarked) [RU-0071818] | 26 to 50% | < 25% |  |  |
| CCN(C)c1onc(-c2ccccc2)c1CN(CCCOC)C(=O)c1ccco1 [RU-0051926] | 26 to 50% | 51 to 74% |  | IC50 ([1]; Table B, read-out: IC50 5HT3): 0.1 to 1 µM |
| CCN(CC)C(=O)c1cccc(C)c1 [DEET, N,N-diethyl-m-toluamide, reference compound] |  |  |  | IC50 (Or47a/Or83b; [2]): > 50 µM; IC50 [1, 3]: > 50 µM |
| COCCCN(Cc1c(-c2ccccc2)noc1N1CCC(C)CC1)C(=O)c1ccccc1F [RU-0036876] | 51 to 74% | 26 to 50% | > 1 µM |  |
| Cc1ccccc1C(=O)N[C@@H]1CCCCC1NC(=O)C1CCN(C(=O)c2cc(C(F)(F)F)cc(C(F)(F)F)c2)CC1 (some centres unmarked) [RU-0045778] | 26 to 50% | 26 to 50% |  |  |
| COc1cccc(NC(=O)CCC2CCN(C(=O)CSc3ccccc3)CC2)c1 [RU-0032474] | 51 to 74% | < 25% | > 1 µM |  |
| CC(=O)OCC(=O)NCC1Cc2cc(Oc3ccccc3)ccc2O1 (centres unmarked) [RU-0079120] | 51 to 74% | 26 to 50% | < 0.1 µM |  |
| COc1ccc(-c2cc(-c3ccccc3)n(C(=O)CN3CCN(Cc4ccccc4)CC3)n2)cc1 [RU-0038795] | 51 to 74% | 51 to 74% | > 1 µM | IC50 ([1]; Table B, read-out: IC50 5HT3): > 1 µM |
| C=CCN(Cc1nccn1Cc1ccccc1C)C(=O)CC(C)C [RU-0058298] | 51 to 74% | 26 to 50% | > 1 µM |  |
| COCCN(Cc1c(-c2ccccc2)noc1N(C)C1CCCCC1)C(=O)c1ccccc1OC [RU-0037275] | 51 to 74% | 26 to 50% | > 1 µM |  |
| O=C(CCC1CCN(C(=O)c2cccc(-n3cccn3)c2)CC1)Nc1ccccc1 [RU-0032465] | 51 to 74% | < 25% | > 1 µM |  |
| Cc1nn(-c2ccc(Cl)cc2)c(C)c1C(=O)NCc1ccccn1 [RU-0048608] | 26 to 50% | < 25% |  |  |
| CCN(CC)c1onc(-c2ccccc2)c1CN(CC1CCCO1)C(=O)c1ccco1 (centres unmarked) [RU-0036855] | 26 to 50% | < 25% |  |  |
